Assay results published in BindingDB's records for patent US20230339882 (Betta Pharmaceuticals, 2023).

Tests used:
[1] = molecular target: T1, Tyrosine-protein phosphatase non-receptor type 11 (Homo sapiens, UniProt Q06124); assay: SHP2 Allosteric Inhibitory Enzyme Activity Assay
T1 sequence (Q06124 whole entry): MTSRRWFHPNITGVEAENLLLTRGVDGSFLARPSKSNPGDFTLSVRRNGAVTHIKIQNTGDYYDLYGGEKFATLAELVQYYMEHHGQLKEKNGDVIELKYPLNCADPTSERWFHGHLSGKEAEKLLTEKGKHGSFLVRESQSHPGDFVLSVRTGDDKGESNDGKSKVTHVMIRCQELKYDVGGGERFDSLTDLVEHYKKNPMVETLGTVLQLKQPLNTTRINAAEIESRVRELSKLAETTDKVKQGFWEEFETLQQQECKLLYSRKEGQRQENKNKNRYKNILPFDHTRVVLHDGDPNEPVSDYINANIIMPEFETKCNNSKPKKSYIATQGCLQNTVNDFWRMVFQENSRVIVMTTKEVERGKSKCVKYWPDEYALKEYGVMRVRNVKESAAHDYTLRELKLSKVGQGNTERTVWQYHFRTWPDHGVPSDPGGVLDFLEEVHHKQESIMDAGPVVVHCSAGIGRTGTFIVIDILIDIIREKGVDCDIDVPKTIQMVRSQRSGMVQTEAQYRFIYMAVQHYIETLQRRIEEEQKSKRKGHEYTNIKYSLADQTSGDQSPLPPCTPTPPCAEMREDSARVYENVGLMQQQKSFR
Source text: SHP2 is allosterically activated by binding of a bis-tyrosyl-phosphorylated peptide to its Src homology 2 (SH2) domain. This later activation step results in the release of the autoinhibitory interface of SHP2, which in turn activates the SHP2 protein tyrosine phosphatase (PTP) and is available for substrate recognition and reaction catalysis. The catalytic activity of SHP2 was monitored using the surrogate DiFMUP in a rapid fluorescence assay format.[0511]experiment procedure:(1) Compound preparation:The compounds of the present invention (10 mM stock solution) were diluted to appropriate times with 100% DMSO, and the final test concentrations of the compounds of the present invention were 10 µM, 3.3333 µM, 1.1111 µM, 0.3704 µM, 0.1235 µM, 0.0412 µM, 0.0137 µM, 0.0046 µM, 0.0015 µM, 0.00 µM;(2) Prepare the enzyme reaction working solution:Perform SHP2 enzymatic assays in 96-well black polystyrene plates (flat bottom, low flange, non-binding surface) (Perki Elmer, Cat#6005270) at room temperature using a final reaction volume of 50 µL and the following assay buffer conditions: 60 mM HEPES, 75 mM NaCl, 75 mM KCl, 0.05% BRIJ-35, 1 mM EDTA, 5 mM DTT.(3) Enzyme-catalyzed reaction and data monitoring:Add the compound of the present invention to the corresponding 96-well plate, and set the blank test well without compound and enzyme only with buffer. Thaw SHP2 Activating Peptide (IRS1_pY1172(dPEG8)pY1222) on ice, add 25 µM to each well, then add 0.2 ng of SHP2 protein sample to the corresponding well plate and incubate at room temperature for 1 hour. The surrogate substrate DiFMUP (Invitrogen, Cat #D6567) was added to the reaction and allowed to react for 1 hour at room temperature. Fluorescence signals were monitored using a microplate reader (Envision, Perki Elmer) using excitation and emission wavelengths of 340 nm and […], respectively.(4) Data analysis:Calculation Formula:Suppression rate %=1-Conversion_sample-Conversion_min/Conversion_max-Conversion_min×100%

[2] = molecular target: Potassium voltage-gated channel subfamily H member 2 (Homo sapiens, UniProt Q12809); assay: Electrophysiological Stimulation Protocol
Source text: Measure the peak tail current.

Potassium voltage-gated channel subfamily H member 2, sequence (Q12809 whole entry): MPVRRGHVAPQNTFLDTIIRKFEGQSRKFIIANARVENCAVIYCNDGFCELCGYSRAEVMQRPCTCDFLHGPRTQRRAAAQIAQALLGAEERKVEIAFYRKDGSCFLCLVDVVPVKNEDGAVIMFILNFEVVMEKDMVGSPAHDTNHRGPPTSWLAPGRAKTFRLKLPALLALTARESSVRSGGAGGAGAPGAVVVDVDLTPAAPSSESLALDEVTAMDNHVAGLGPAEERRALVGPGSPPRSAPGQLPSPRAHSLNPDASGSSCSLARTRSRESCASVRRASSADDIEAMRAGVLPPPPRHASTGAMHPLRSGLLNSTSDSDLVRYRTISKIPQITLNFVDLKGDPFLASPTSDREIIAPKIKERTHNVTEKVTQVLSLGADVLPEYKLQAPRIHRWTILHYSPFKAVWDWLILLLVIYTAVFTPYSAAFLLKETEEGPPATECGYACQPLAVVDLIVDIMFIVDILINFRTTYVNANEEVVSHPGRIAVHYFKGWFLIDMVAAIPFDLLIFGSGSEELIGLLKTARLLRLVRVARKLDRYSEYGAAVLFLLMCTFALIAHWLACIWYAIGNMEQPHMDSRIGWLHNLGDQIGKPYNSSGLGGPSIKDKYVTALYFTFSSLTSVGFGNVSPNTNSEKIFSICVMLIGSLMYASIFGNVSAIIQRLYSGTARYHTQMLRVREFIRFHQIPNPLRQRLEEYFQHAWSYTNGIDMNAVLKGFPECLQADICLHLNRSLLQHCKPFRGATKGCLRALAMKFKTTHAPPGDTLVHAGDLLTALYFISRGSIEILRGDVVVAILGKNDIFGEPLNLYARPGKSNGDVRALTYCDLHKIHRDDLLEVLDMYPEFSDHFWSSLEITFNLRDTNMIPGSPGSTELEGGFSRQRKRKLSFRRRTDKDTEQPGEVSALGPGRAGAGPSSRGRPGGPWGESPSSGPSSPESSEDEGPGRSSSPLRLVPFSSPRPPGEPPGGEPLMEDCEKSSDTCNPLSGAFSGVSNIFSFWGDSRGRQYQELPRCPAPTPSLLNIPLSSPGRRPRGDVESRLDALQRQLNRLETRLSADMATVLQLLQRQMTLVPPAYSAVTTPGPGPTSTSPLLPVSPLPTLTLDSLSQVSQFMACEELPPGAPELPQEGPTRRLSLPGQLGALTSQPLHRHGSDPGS

IC50 [1] | IC50 [2] | SMILES
2.2 nM | – | CNC(=O)c1cccc(OCC#Cc2cnc(N3CCC4(CC3)Cc3ccccc3[C@H]4N)c(CO)n2)c1 [US20230339882, Example A35]
5.3 nM | – | CC(=O)Nc1cccc(OCC#Cc2cnc(N3CCC4(CC3)Cc3ccccc3[C@H]4N)n(C)c2=O)c1 [US20230339882, Example A34]
1 nM | – | N#Cc1ccc(OCC#Cc2cnc(N3CCC4(CC3)Cc3ccccc3[C@H]4N)c(CO)n2)cc1 [US20230339882, Example A12]
4.9 nM | – | N[C@@H]1c2ccccc2CC12CCN(c1ncc(C#CCOc3cccc(Cl)c3F)nc1CO)CC2 [US20230339882, Example A05]
1.7 nM | – | N[C@@H]1c2ccccc2CC12CCN(c1ncc(C#CCOc3ccc4c(c3)NC(=O)C4)nc1CO)CC2 [US20230339882, Example A25]

More lines, now with the values behind:

SMILES | IC50 [1] | IC50 [2]
N[C@@H]1c2ccccc2CC12CCN(c1ncc(C#CCNc3ccc4c(c3)NC(=O)CC4)nc1CO)CC2 [US20230339882, Example A64] | 2.6 nM | –
N[C@@H]1c2ccccc2CC12CCN(c1ncc(C#CCOc3cccc(OC(F)(F)F)c3)nc1CO)CC2 [US20230339882, Example A15] | 11 nM | –
N[C@@H]1c2ccccc2CC12CCN(c1ncc(C#CCOc3ccc(C(F)(F)F)nc3)nc1CO)CC2 [US20230339882, Example A63] | 2.6 nM | –
COc1ccccc1OCC#Cc1cnc(N2CCC3(CC2)Cc2ccccc2[C@H]3N)c(CO)n1 [US20230339882, Example A10] | 3.7 nM | –
CN(C)C(=O)c1cccc(OCC#Cc2cnc(N3CCC4(CC3)Cc3ccccc3[C@H]4N)c(CO)n2)c1 [US20230339882, Example A36] | 7.2 nM | –
N[C@@H]1c2ccccc2CC12CCN(c1ncc(C#CCOc3ccc4ccc(=O)[nH]c4c3)nc1CO)CC2 [US20230339882, Example A24] | 2.4 nM | –
CC(O)c1ccc(OCC#Cc2cnc(N3CCC4(CC3)Cc3ccccc3[C@H]4N)c(CO)n2)cc1 (stereo not given in full) [US20230339882, Example A71] | – | > 20000 nM
CC(=O)c1cccc(OCC#Cc2cnc(N3CCC4(CC3)Cc3ccccc3[C@H]4N)c(CO)n2)c1 [US20230339882, Example A16] | 2.4 nM | –
CNC(=O)c1ccc(OCC#Cc2cnc(N3CCC4(CC3)Cc3ccccc3[C@H]4N)c(CO)n2)cc1 [US20230339882, Example A72] | 2.6 nM | –
N[C@@H]1c2ccccc2CC12CCN(c1ncc(C#CCOc3ccc4[nH]ncc4c3)nc1CO)CC2 [US20230339882, Example A67] | 3.1 nM | –
